Paper PMC11362529, “Exploring the neuroprotective potential of Nrf2-pathway activators against annonacin toxicity” (Scientific Reports, 2024)

What was measured:
[1] = test system: LUHMES cells; experiment: Mitochondrial membrane potential (JC-1 probe); format: cell-based, human; conditions: 24 h
Experimental: In PLO/FN-coated 24-well microplates, cells were simultaneously incubated with 20 nM of annonacin and the selected concentrations of Nrf2-pathway activators, in glucose-reduced medium, over the course of 24 h. After that, the medium was removed and cells were washed once with warm HBSS, followed by incubation with 5 µM JC-1 solution in HBSS, for 20 min at 37 °C. For the positive control, the mitochondrial oxidative phosphorylation uncoupler, CCCP, was used at a concentration of 50 µM. After the incubation period, cells were washed with HBSS, and fresh HBSS was added to keep the cells viable during live-image acquisition. Image acquisition was done on a fluorescence microscope Leica-DFC9000GTC (Leica, Frankfurt, Germany). Environmental conditions were kept steady at 37 °C with a 5% CO2 atmosphere during the entire acquisition time. Ten to fifteen images from different fields of view, dispersed across triplicates, were acquired with 200 × magnification (20 × objective, 10 × intermediate magnification), using the same image acquisition parameters for all conditions. The fluorescence of JC-1 monomers was captured on the green channel (λ Ex/Em = 475/519 nm) and the fluorescence of JC-1 aggregates was capture on the red channel (λ Ex/Em = 555/594 nm). Quantification of FI (fluorescence intensities) of JC-1 monomeric and aggregated forms was done using the ImageJ software (http://rsb.info.nih.gov/ij/, ImageJ bundled with 64-bit Java 8). Briefly, TIFF exported images were submitted to background subtraction using the rolling ball method with a radius of 50 pixels. Channel-specific thresholds were applied to all images to define the ROI (region of interest) and FI were measured as integrated density. Data were reported as the ratio between JC-1 aggregates and monomers, obtained by dividing the FI of the JC-1 aggregated form by the FI of the monomeric form.

[2] = test system: Nrf2; experiment: Nrf2 nuclear translocation (cell fractionation, Western blot); format: cell-based, human; conditions: 4 h treatment
Experimental: For fractionation experiments, LUHMES were seeded on double-coated T25 flasks and submitted to pharmacological treatments. Afterwards, the medium was removed and cells were briefly washed with warm HBSS, and trypsinized for 5 min at 37 °C. The cells were pelleted at 500×g for 5 min at 4 °C, washed once with ice-cold PBS (phosphate buffered saline), and centrifuged at 500 g for 2 min at 4 °C. Nuclear protein extraction was achieved using the NE-PER™ nuclear and cytoplasmic extraction kit (Thermo Fisher Scientific), according to the manufacturer’s instructions. Briefly, the pellet was resuspended in 50 µl of CER I buffer, supplemented with Halt™ protease and phosphatase inhibitor cocktail (Thermo Fisher Scientific), and incubated on ice for 10 min, followed by the addition of 2.75 µl of CER II, and a 2 min incubation on ice after vortexing. The samples were then centrifuged at maximum speed for 10 min at 4 °C and the cytoplasmic fraction was saved. The nuclear pellet was washed with ice-cold PBS and resuspended in 25 µl of NER buffer supplemented with protease and phosphatase inhibitors, followed by 6 cycles of 10 min incubation on ice, with 15 s of vortexing between each cycle. Finally, the samples were centrifuged at maximum speed for 10 min at 4 °C and the nuclear fraction was transferred to a new tube. All protein extracts were stored long-term at − 80 °C.
The concentrations of protein extracts were determined by BCA (bicinchoninic acid) assay, using the Pierce™ BCA protein assay kit (Thermo Fisher Scientific), according to the manufacturer’s instructions. Absorbance values were measured on a FLUOstar® Omega plate reader. For Western blot analysis, sample volumes were diluted in PBS to ensure that equal amounts of total protein were loaded. For fractionated samples, 30 µg of cytoplasmic fraction and 15 µg of nuclear fraction were applied. Samples were denatured by heating at 95 °C for 5 min on a ThermoMixer C (Eppendorf, Wesseling-Berzdorf, Germany) with 4 × Laemmli sample buffer supplemented with 10% β-ME (β-mercaptoethanol). SDS–PAGE was performed using 7.5% Criterion™ TGX™ precast midi gels in a Tris–glycine-SDS running buffer (Bio-Rad). The proteins were blotted onto PVDF membranes, using a trans-blot turbo transfer system (Bio-Rad) at 25 V for 30 min. The membranes were blocked for 1 h at RT, with 3 × Roti®-Block solution (Carl Roth, Karlsruhe, Germany) or 5% nonfat-dry milk in 0.05% TBST (Tris-buffered saline with 0.05% Tween20), in the case of the Nrf2 antibody. Membranes were incubated at 4 °C overnight under gentle shaking with the appropriate primary antibody solutions as listed in Supplementary Table S2. On the following day, the membranes were washed with TBST, and incubated with the HRP-secondary antibodies for 2 h at RT (Supplementary Table S2). After further washing, the membranes were exposed to Clarity Western ECL Substrate (Bio-Rad), or SuperSignal West Femto Maximum Sensitivity Substrate (Thermo Fisher Scientific) in the case of the Nrf2 antibody. Chemiluminescence signal was detected with an Odyssey® Fc imaging system (LI-COR Biosciences, Bad Homburg, Germany) and analyzed by Image Studio™ software (LI-COR Biosciences). Fraction purity was confirmed and signal intensity normalized to housekeeping proteins, using β-III tubulin for the cytoplasmic fraction and lamin A for the nuclear fraction. Protein expression was expressed as fold change relative to the control (DMSO-treated) condition.

[3] = protective concentration of compound + 20 nM annonacin
[4] = absence of annonacin, vs control

Compound	mitochondrial membrane potential (JC-1 aggregates/monomers ratio) ([1]; 20 nM annonacin alone, glucose-reduced medium)	mitochondrial membrane potential (JC-1 aggregates/monomers ratio) [1, 3]	Nrf2 expression in the nuclear fraction, normalized to lamin A [2, 4]	Nrf2 expression in the nuclear fraction, normalized to lamin A ([2]; presence of 20 nM annonacin)
CCCCCCCCCCCC[C@@H](O)[C@H]1CC[C@H]([C@H](O)CCCC[C@H](O)CCCCC[C@@H](O)CC2=CC(C)OC2=O)O1 (stereo partly shown) [annonacin]	significant mitochondrial depolarization	–	–	–
O=C1[C@H](CC[C@H](O)c2ccc(F)cc2)[C@@H](c2ccc(O)cc2)N1c1ccc(F)cc1 [ezetimibe]	–	aggravated mitochondrial depolarization	no evidence of increasing the Nrf2 nuclear expression	no evidence of increasing the Nrf2 nuclear expression
C=CC(C)(C)c1cc(/C=C/C(=O)c2ccc(O)cc2)c(OC)cc1O [licochalcone A]	–	aggravated mitochondrial depolarization	significantly increased expression of Nrf2 protein in the nuclear fraction	higher expression of Nrf2 in the nuclear fraction
Cn1c(Nc2nc3ccc(C(F)(F)F)cc3s2)nc2cc(C(=O)NCCOCCO)ccc21 [HPP-D]	–	rescue the ΔψM from annonacin-induced depolarization	significantly increased expression of Nrf2 protein in the nuclear fraction	higher expression of Nrf2 in the nuclear fraction
